Results as given in patent US8119633B2, “Substituted sulfonamide compounds” (Gruenenthal GmbH, priority 2007, dated 2012).
Where two headings read alike, the source gives them in different places.

Key:
[1] = molecular target: T1, human bradykinin receptor 1 (B1R) (Homo sapiens, UniProt P46663); test: Functional study on the bradykinin receptor 1 (B1R), human: FLIPR Ca2+ influx assay; type: cell-based
T1 construct: expressed in transfected cells; host or cells: CHO K1 cells
T1 sequence (P46663 1-353): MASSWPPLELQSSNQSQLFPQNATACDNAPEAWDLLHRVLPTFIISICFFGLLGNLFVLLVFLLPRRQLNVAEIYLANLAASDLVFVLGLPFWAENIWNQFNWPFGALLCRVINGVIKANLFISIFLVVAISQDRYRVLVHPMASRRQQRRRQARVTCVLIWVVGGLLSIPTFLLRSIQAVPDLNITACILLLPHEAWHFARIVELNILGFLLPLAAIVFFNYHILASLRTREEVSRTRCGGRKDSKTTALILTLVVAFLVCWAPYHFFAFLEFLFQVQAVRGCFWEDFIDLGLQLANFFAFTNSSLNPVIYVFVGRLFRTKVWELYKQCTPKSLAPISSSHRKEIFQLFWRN
Description: Functional Study on the Human Bradykinin Receptor 1 (B1R)
(§1) The agonistic or antagonistic action of substances can be determined on the bradykinin receptor 1 (B1R) of the species human and rat using the following assay. According to this assay, the Ca^2+ influx through the channel is quantified with the aid of a Ca^2+-sensitive dye (Fluo-4 type, Molecular Probes Europe BV, Leiden, Netherlands) using a Fluorescent Imaging Plate Reader (FLIPR, Molecular Devices, Sunnyvale, USA).
(§2) Chinese hamster ovary cells (CHO K1 cells) which have been stably transfected with the human B1R gene (hB1R cells) or with the B1R gene of the rat (rB1R cells) are used. For functional studies, the cells are plated out on black 96-well plates having a clear base (BD Biosciences, Heidelberg, Germany or Greiner, Frickenhausen, Germany) in a density of 20,000-35,000 cells/well. The cells are incubated overnight at 37° C. and with 5% CO2 in culture medium (hB1R cells: Nutrient Mixture Ham's F12, Gibco Invitrogen GmbH, Karlsruhe, Germany or DMEM, Sigma-Aldrich, Taufkirchen, Germany; rB1R cells: D-MEM/F12, Gibco Invitrogen GmbH, Karlsruhe, Germany), with 10 vol. % FBS (fetal bovine serum, Gibco Invitrogen GmbH, Karlsruhe, Germany or PAN Biotech GmbH, Aidenbach, Germany).
(§3) On the following day, the cells are loaded for 60 minutes at 37° C. with 2.13 μM Fluo-4 (Molecular Probes Europe BV, Leiden, Netherlands) in HBSS buffer (Hank's buffered saline solution, Gibco Invitrogen GmbH, Karlsruhe, Germany) with 2.5 mM probenecid (Sigma-Aldrich, Taufkirchen, Germany) and 10 mM HEPES (Sigma-Aldrich, Taufkirchen, Germany). The plates are then washed twice with HBSS buffer, and HBSS buffer additionally containing 0.1% BSA (bovine serum albumin; Sigma-Aldrich, Taufkirchen, Germany), 5.6 mM glucose and 0.05% gelatin (Merck KGaA, Darmstadt, Germany) is added to the plates. After incubation for a further 20 minutes at room temperature, the plates are inserted into the FLIPR for Ca^2+ measurement. Alternatively, washing is carried out with buffer A (15 mM HEPES, 80 mM NaCl, 5 mM KCl, 1.2 mM CaCl2, 0.7 mM MgSO4, 2 g/l glucose, 2.5 mM probenecid) followed by loading with buffer A with added 2.5 μM Fluo-4 and 0.025% Pluronic F127 (Sigma-Aldrich, Taufkirchen, Germany). The cells are then washed twice with buffer A and incubated for 30 minutes at room temperature with buffer A additionally containing 0.05% BSA and 0.05% gelatin and are then inserted into the FLIPR for Ca^2+ measurement.
(§4) The Ca^2+-dependent fluorescence is measured before and after the addition of substances (λex=488 nm, λem=540 nm). Quantification is carried out by measuring the highest fluorescence intensity (FC, fluorescence counts) over time.
(§5) The FLIPR protocol consists of two substance additions. Test substances (10 μM) are first pipetted onto the cells and the Ca^2+ influx is compared with the control (hB1R: Lys-Des-Arg^9-bradykinin>=0.5 nM; rB1R: Des-Arg^9-bradykinin 10 μM). This gives the activation in %, based on the Ca^2+ signal after addition of Lys-Des-Arg^9-bradykinin (>=0.5 nM) or Des-Arg^9-bradykinin (10 μM).
(§6) After 10-20 minutes' incubation, Lys-Des-Arg^9-bradykinin (hB1R) or Des-Arg^9-bradykinin (rB1R) is applied in the concentration of the EC80, and the influx of Ca^2+ is likewise determined.
(§7) Antagonists lead to suppression of the Ca^2+ influx. The % inhibition compared with the maximum achievable inhibition is calculated.
(§8) In order to determine the IC50 value, the substances are added in various concentrations. Duplicate or triplicate determinations (n=2 or n=3) are carried out, and these are repeated in at least one further independent experiment (N>=2).

[2] = molecular target: T2, bradykinin receptor 1 (B1R) of the rat (Rattus norvegicus, UniProt P97583); test: Functional study on the bradykinin receptor 1 (B1R), rat: FLIPR Ca2+ influx assay; type: cell-based
T2 construct: expressed in transfected cells; host or cells: CHO K1 cells
T2 sequence (P97583 1-337): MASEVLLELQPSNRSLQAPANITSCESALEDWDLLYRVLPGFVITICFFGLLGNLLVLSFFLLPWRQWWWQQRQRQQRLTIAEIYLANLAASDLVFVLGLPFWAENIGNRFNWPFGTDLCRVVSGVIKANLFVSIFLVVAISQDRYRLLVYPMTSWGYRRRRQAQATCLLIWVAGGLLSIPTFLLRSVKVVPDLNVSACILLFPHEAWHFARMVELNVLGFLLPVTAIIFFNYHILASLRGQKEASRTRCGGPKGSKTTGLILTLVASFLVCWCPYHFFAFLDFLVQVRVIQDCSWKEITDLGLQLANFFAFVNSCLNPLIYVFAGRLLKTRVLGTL
Description: as §1, §2, §3, §4, §5, §6, §7, §8

[3] = test substance 10 μM, CHO K1 cells transfected with human B1R, Lys-Des-Arg9-bradykinin at EC80, Ca2+ influx (Fluo-4, FLIPR), read-out: B1R antagonism, human [10 μM] % inhibition
[4] = test substance 10 μM, CHO K1 cells transfected with rat B1R, Des-Arg9-bradykinin at EC80, Ca2+ influx (Fluo-4, FLIPR), read-out: B1R antagonism, rat [10 μM] % inhibition

Row | Structure (SMILES) | inhibition at 10 µM [1, 3] [%] | inhibition at 10 µM [2, 4] [%] | inhibition at 10 µM ([1]; CHO-K1, read-out: B1R antagonism, human [10 μM] % inhibition) [%] | inhibition at 10 µM ([2]; CHO-K1, read-out: B1R antagonism, rat [10 μM] % inhibition) [%]
1 | CN(C)C(CCc1ccccc1)C1CCC(NC(=O)C2Cc3ccccc3N2S(=O)(=O)c2ccc(Cl)c(Cl)c2)CC1 (stereo not drawn) [Example 93, 1-(3,4-dichlorophenylsulfonyl)-N-(4-(1-(dimethylamino)-3-phenylpropyl)cyclohexyl)indoline-2-carboxamide] | 15.5 | -24 | – | –
2 | CN(C)C(c1ccc(F)cc1)C1CCC(CNC(=O)c2ccccc2N(C)S(=O)(=O)c2ccc(Cl)c(Cl)c2)CC1 (stereo not drawn) [Example 40, 2-[(3,4-dichloro-benzenesulfonyl)-methyl-amino]-N-{4-[dimethylamino-(4-fluoro-phenyl)-methyl]-cyclohexylmethyl}-benzamide] | 17.1 | 20 | – | –
3 | CN(C)C(CCc1ccccc1)C1CCC(CNC(=O)CC2c3ccccc3CCN2S(=O)(=O)c2ccc(Cl)c(Cl)c2)CC1 (stereo not drawn) [Example 30, 2-[2-(3,4-dichloro-benzenesulfonyl)-1,2,3,4-tetrahydro-isoquinolin-1-yl]-N-[4-(1-dimethylamino-3-phenyl-propyl)-cyclohexylmethyl]-acetamide] | 75.7 | 58 | – | –
4 | CN(C)C(CCc1ccccc1)C1CCC(CCNC(=O)Cc2ccccc2N(C)S(=O)(=O)c2ccc(Cl)c(Cl)c2)CC1 (stereo not drawn) [Example 99, 2-(2-(3,4-dichloro-N-methylphenylsulfonamido)phenyl)-N-(2-(4-(1-(dimethylamino)-3-phenylpropyl)cyclohexyl)ethyl)acetamide] | 83.3 | -7 | – | –
5 | CN(C)C(c1ccc(F)cc1)C1CCC(CCNC(=O)CC2c3ccccc3CCN2S(=O)(=O)c2ccc(Cl)c(Cl)c2)CC1 (stereo not drawn) [Example 35, 2-[2-(3,4-dichloro-benzenesulfonyl)-1,2,3,4-tetrahydro-isoquinolin-1-yl]-N-(2-{4-[dimethylamino-(4-fluoro-phenyl)-methyl]-cyclohexyl}-ethyl)-acetamide] | 79.5 | 49 | – | –
6 | COc1ccc(S(=O)(=O)N2CCc3ccccc3C2CC(=O)NCCC2CCC(C(c3cccc(F)c3)N(C)C)CC2)cc1 (stereo not drawn) [Example 23, N-(2-{4-[dimethylamino-(3-fluoro-phenyl)-methyl]-cyclohexyl}-ethyl)-2-[2-(4-methoxy-benzenesulfonyl)-1,2,3,4-tetrahydro-isoquinolin-1-yl]-acetamide] | 64 | 57 | – | –
7 | CN(C)C(CCc1ccccc1)C1CCC(CNC(=O)c2ccccc2N(C)S(=O)(=O)c2ccc(Cl)c(Cl)c2)CC1 (stereo not drawn) [Example 39, 2-[(3,4-dichloro-benzenesulfonyl)-methyl-amino]-N-[4-(1-dimethylamino-3-phenyl-propyl)-cyclohexylmethyl]-benzamide] | 79.3 | 42 | – | –
8 | COc1ccc(S(=O)(=O)N2CCc3ccccc3C2CC(=O)NCCC2CCC(C(c3cccs3)N(C)C)CC2)cc1 (stereo not drawn) [Example 25, N-{2-[4-(dimethylamino-thiophen-2-yl-methyl)-cyclohexyl]-ethyl}-2-[2-(4-methoxy-benzenesulfonyl)-1,2,3,4-tetrahydro-isoquinolin-1-yl]-acetamide] | 79.5 | 68 | – | –
9 | COc1ccc(S(=O)(=O)N2CCc3ccccc3C2CC(=O)NCCC2CCC(C(c3ccc(Cl)cc3)N(C)C)CC2)cc1 (stereo not drawn) [Example 22, N-(2-{4-[(4-chloro-phenyl)-dimethylamino-methyl]-cyclohexyl}-ethyl)-2-[2-(4-methoxy-benzenesulfonyl)-1,2,3,4-tetrahydro-isoquinolin-1-yl]-acetamide] | 70.3 | 34 | – | –
10 | CN(C)C(c1ccccc1)C1CCC(NC(=O)C2Cc3ccccc3N2S(=O)(=O)c2ccc(Cl)c(Cl)c2)CC1 (stereo not drawn) [Example 91, 1-(3,4-dichlorophenylsulfonyl)-N-(4-((dimethylamino)(phenyl)methyl)cyclohexyl)indoline-2-carboxamide] | – | – | 17.8 | 8
11 | CN(C)C(c1ccccc1)C1CCC(CNC(=O)CC2c3ccccc3CCN2S(=O)(=O)c2ccc(Cl)c(Cl)c2)CC1 (stereo not drawn) [Example 29, 2-[2-(3,4-dichloro-benzenesulfonyl)-1,2,3,4-tetrahydro-isoquinolin-1-yl]-N-[4-(dimethylamino-phenyl-methyl)-cyclohexylmethyl]-acetamide] | 64.5 | 45 | – | –
12 | CN(C)C(c1ccc(Cl)cc1)C1CCC(CNC(=O)CC2c3ccccc3CCN2S(=O)(=O)c2ccc(Cl)c(Cl)c2)CC1 (stereo not drawn) [Example 32, N-{4-[(4-chloro-phenyl)-dimethylamino-methyl]-cyclohexylmethyl}-2-[2-(3,4-dichloro-benzenesulfonyl)-1,2,3,4-tetrahydro-isoquinolin-1-yl]-acetamide] | 10.7 | 15 | – | –
13 | CN(C)C(c1ccc(Cl)cc1)C1CCC(CCNC(=O)CC2c3ccccc3CCN2S(=O)(=O)c2ccc(Cl)c(Cl)c2)CC1 (stereo not drawn) [Example 33, N-(2-{4-[(4-chloro-phenyl)-dimethylamino-methyl]-cyclohexyl}-ethyl)-2-[2-(3,4-dichloro-benzenesulfonyl)-1,2,3,4-tetrahydro-isoquinolin-1-yl]-acetamide] | 42.2 | 18 | – | –
14 | COc1ccc(S(=O)(=O)N2CCc3ccccc3C2CC(=O)NCCC2CCC(C(c3ccc(F)cc3)N(C)C)CC2)cc1 (stereo not drawn) [Example 24, N-(2-{4-[dimethylamino-(4-fluoro-phenyl)-methyl]-cyclohexyl}-ethyl)-2-[2-(4-methoxy-benzenesulfonyl)-1,2,3,4-tetrahydro-isoquinolin-1-yl]-acetamide] | 82.2 | 67 | – | –
15 | CN(C)C(c1cccc(F)c1)C1CCC(CNC(=O)CC2c3ccccc3CCN2S(=O)(=O)c2ccc(Cl)c(Cl)c2)CC1 (stereo not drawn) [Example 28, 2-[2-(3,4-dichloro-benzenesulfonyl)-1,2,3,4-tetrahydro-isoquinolin-1-yl]-N-{4-[dimethylamino-(3-fluoro-phenyl)-methyl]-cyclohexylmethyl}-acetamide] | 26.3 | 34 | – | –
